Data as given in US20250388604A1, “Compounds and Their Use as PDE4 Activators” (Mironid Limited, priority 2022, published 2025).

Test system: m-IMCD3 cells
Assay: Inhibition of PGE2-stimulated in vitro cyst formation in m-IMCD3 cells
Assay type: cell-based, mouse
Settings: Mus musculus, mIMCD3, 144 h, 3 μM; mean cyst area, 100% for (DMSO + PGE2) and 0% for DMSO control; 6 days of culture; read-out: % Cyst area after incubation with 3 μM test compound
How it was run: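 m-IMCD3 cells embedded in collagen I/Matrigel 3D culture; 18–24 h after plating, compound (0.1% DMSO final) plus PGE2 (100 nM final) added, replenished after 2 or 3 days. After 6 days, z-stack imaging gave mean cyst area, normalized to DMSO+PGE2 (100%) and DMSO (0%).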

Compared with O=C(Oc1ccccc1)N1CCc2nc(N3C4CCC3CNC4)sc2C1 [Example 247, phenyl 2-(3,8-diazabicyclo[3.2.1]octan-8-yl)-6,7-dihydrothiazolo[5,4-c]pyridine-5(4H)-carboxylate], COc1cc(F)ccc1C(=O)N1CCc2nc(N3C4CCC3CNC4)sc2C1 [Example 222, (2-(3,8-diazabicyclo[3.2.1]octan-8-yl)-6,7-dihydrothiazolo[5,4-c]pyridin-5(4H)-yl)(4-fluoro-2-methoxyphenyl)methanone] is lower in activity at 3 µM: 18% for the first, 4% for the second.

Going from CCN1CCN(c2nc3c(s2)CN(C(=O)CC(C)(C)C)CC3)CC1 [Example 299, 1-(2-(4-ethylpiperazin-1-yl)-6,7-dihydrothiazolo[5,4-c]pyridin-5(4H)-yl)-3,3-dimethylbutan-1-one] to O=C(Cc1ccc(F)nc1)N1CCc2nc(N3C4CCC3CNC4)sc2C1 [Example 165, 1-(2-(3,8-diazabicyclo[3.2.1]octan-8-yl)-6,7-dihydrothiazolo[5,4-c]pyridin-5(4H)-yl)-2-(6-fluoropyridin-3-yl)ethan-1-one], the activity at 3 µM falls from 3% to 2%.

With O=C(c1cccc2c1OC(F)(F)O2)N1CCc2nc(N3C4CCC3CNC4)sc2C1 [Example 233, (2-(3,8-diazabicyclo[3.2.1]octan-8-yl)-6,7-dihydrothiazolo[5,4-c]pyridin-5(4H)-yl)(2,2-difluorobenzo[d][1,3]dioxol-4-yl)methanone] the activity at 3 µM was -2%.

Same assay, conditions: Mus musculus, mIMCD3, 144 h, 10 μM; mean cyst area, 100% for (DMSO + PGE2) and 0% for DMSO control; 6 days of culture; read-out: % Cyst area after incubation with 10 μM test compound

CN1CC2CCC(C1)N2c1nc2c(s1)CN(C(=O)CC1CCCC1)CC2(C)C [Example 102, 2-cyclopentyl-1-(7,7-dimethyl-2-(3-methyl-3,8-diazabicyclo[3.2.1]octan-8-yl)-6,7-dihydrothiazolo[5,4-c]pyridin-5(4H)-yl)ethan-1-one] and O=C(CC1CCC1)N1CCc2nc(N3C4CCC3CNC4)sc2C1 [Example 11, 1-(2-(3,8-diazabicyclo[3.2.1]octan-8-yl)-6,7-dihydrothiazolo[5,4-c]pyridin-5(4H)-yl)-2-cyclobutylethan-1-one] are the same in activity at 10 µM: -3% for the first, -3% for the second.

Compared with CCC(C)(C)C(=O)N1CCc2nc(N3C4CCC3CNC4)sc2C1 [Example 154, 1-(2-(3,8-diazabicyclo[3.2.1]octan-8-yl)-6,7-dihydrothiazolo[5,4-c]pyridin-5(4H)-yl)-2,2-dimethylbutan-1-one], CC(C)OCC(=O)N1CCc2nc(N3C4CCC3CNC4)sc2C1 [Example 4, 1-(2-(3,8-diazabicyclo[3.2.1]octan-8-yl)-6,7-dihydrothiazolo[5,4-c]pyridin-5(4H)-yl)-2-isopropoxyethan-1-one] is higher in activity at 10 µM: -13% for the first, 12% for the second.

Going from O=C(CC1CCC(F)(F)CC1)N1CCn2nc(N3C4CCC3CNC4)nc2C1 [Example 97, 1-(2-(3,8-diazabicyclo[3.2.1]octan-8-yl)-5,6-dihydro-[1,2,4]triazolo[1,5-a]pyrazin-7 (8H)-yl)-2-(4,4-difluorocyclohexyl)ethan-1-one] to CN1CC2CCC(C1)N2c1cc2n(n1)CCN(C(=O)NC1CCC(F)(F)CC1)C2 [Example 85, N-(4,4-difluorocyclohexyl)-2-(3-methyl-3,8-diazabicyclo[3.2.1]octan-8-yl)-6,7-dihydropyrazolo[1,5-a]pyrazine-5(4H)-carboxamide], the activity at 10 µM falls from 6% to -2%.

Going from O=C(COc1ccc(F)cc1F)N1CCc2nc(N3C4CCC3CNC4)sc2C1 [Example 148, 1-(2-(3,8-diazabicyclo[3.2.1]octan-8-yl)-6,7-dihydrothiazolo[5,4-c]pyridin-5(4H)-yl)-2-(2,4-difluorophenoxy)ethan-1-one] to Cc1cc(F)ccc1CC(=O)N1CCc2nc(N3C4CCC3CNC4)sc2C1 [Example 156, 1-(2-(3,8-diazabicyclo[3.2.1]octan-8-yl)-6,7-dihydrothiazolo[5,4-c]pyridin-5(4H)-yl)-2-(4-fluoro-2-methylphenyl)ethan-1-one], the activity at 10 µM falls from 3% to 0%.
